Laboratory results taken from patent publication US6664232B1, “HLA-A2 restraint tumor antigen peptide originating in SART-1” (Kyogo Itoh, priority 1998, dated 2003).
No end group written: not given here.

System: YK-EC (HLA-A2-restricted CTL cell line) with HLA-A0201-positive T2 cells
Experiment: IFN-γ production by YK-EC incubated with peptide-pulsed T2 cells (ELISA)
Format: cell-based, human
Details: 2×10^4 T2 cells pulsed with peptide at 10 μM over 2 hours, incubated with 1×10^5 YK-EC for 18 hours; IFN-γ in supernatant by ELISA; non peptide control 6.5
Method: Specifically, 10^4 of VA-13 cells were placed in each well of 96-well microplate, and incubated in RPMI 1640 medium containing 10% FCS. VA-13 cells were doubly transfected with 30 μl mixture consisting of 100 ng of the recombinant plasmid for HLA-A0201 cDNA and 100 ng of 6DI by using Lipofectin reagent (GIBCO BRL). Transfectants were prepared in duplicate. After 5-hour-incubation, 200 μl of culture medium was added to the transfectants, and the incubation continued for 72 hours. The culture medium was removed and 2×10^4 YK-EC were added, which was followed by cultivation for 18 to 24 hours. The culture medium was recovered, and the amount of IFN-γ was measured by ELISA. Specifically, an anti-humnan IFN-γ mouse monoclonal antibody was allowed to adsorb on wells of 96-well microplate to provide a solid-phased antibody. After blocking non-specific bindings with bovine serum albumin, the solid-phased antibody was allowed to bind with IFN-γ in the test sample. Anti-human IFN-γ rabbit polyclonal antibody as a detection antibody was then allowed to bind, which was followed by binding with an anti-rabbit immunoglobulin goat antibody (Amersham) labeled with alkaline phosphatase. The plate was subjected to color development reaction with peroxdase color development kit T (Sumitomo Bakelite), and measurement of absorbance at 405 nm. The absorbance was compared with that obtained with standard IFN-γ to determine the amount of IFN-γ. In the control experiments, the following three groups of cells were treated in the same manner: cells without transfection (non-treated group); cells transfected with recombinant plasmid 6DI alone; and cells transfected with solely recombinant plasmid containing HLA-A201 cDNA. To 2×10^4 T2 cells (Immunogenetics, 21:235,1985), which cell is an HLA-A0201-positive T-B hybridoma cell line but lacks the ability to present endogenous peptides, were added each of six peptides prepared in Example 3 at 10 μM over 2 hours. After incubating with 1×10^5 YK-EC for 18 hours, the amount of IFN-γ in supernatant produced by YK-EC was measured by ELISA in the same manner as described in Example 2.

LLLCQNKGLL [642-651] and LLETTVQKV [650-658] are within 1.5-fold of each other in “Amount of INF-γ produced by YK-EC” value: 112.4 pg/mL for the first, 118.1 pg/mL for the second.

AQKTPYIVL [778-786] and LLLCQNKGL [642-650] are within 1.5-fold of each other in “Amount of INF-γ produced by YK-EC” value: 105.4 pg/mL for the first, 109.1 pg/mL for the second.

YVDETGRKL [712-720] and RVKAPNKSL [660-668] are within 1.5-fold of each other in “Amount of INF-γ produced by YK-EC” value: 86.1 pg/mL for the first, 71.1 pg/mL for the second.
